Experimental data reported in patent publication US11254781B2, “Urethane-crosslinked biodegradable elastomers” (Massachusetts Institute of Technology, priority 2011, dated 2022).

System: adult male Wistar rats
Details: rat, in vivo
Description: In vivo cardiac biocompatibility of PGSU-SF films All surgical procedures were approved by the IACUC of the Children's Hospital Boston and performed according to the NIH Guidelines for the Care and Use of Laboratory Animals Briefly, adult male Wistar rats (Charles River Laboratories, Wilmington, Mass.) were anesthetized with an intraperitoneal injection of ketamine (100 mg/kg) and xylazine (10 mg/kg), followed by intratracheal intubation. Rats were ventilated with a small animal respirator (Harvard Apparatus, Holliston, Mass.), and anesthesia was maintained with 0.5 to 1.0% isofluorane and 100% oxygen. The heart was accessed through an anterior right-sided thoracotomy, followed by the removal of the pericardial sac. A 1 mm thick and 7 mm in diameter porous PGSU-SF 1:0.3 patch was sutured on the left ventricle (LV) epicardial surface of the rat heart using three 7-0 polypropylene monofilament stitches. The chest wall was closed in layers, and the thoracic cavity evacuated with a 18-gauge intravenous catheter Animals were sacrificed at 1 and 4 weeks (n=4 per time point) after the surgical procedure with CO2, followed by immediate excision of the heart. Tissue sections transverse to the patch and heart surface were stained with Hematoxylin and Eosin stain (H&E). […]

- cardiac function (echocardiography): No changes
- chest adhesions: Moderate
Substance: poly (glycerol sebacate urethane) [PGSU-SF 1:0.3]
